In one data set the test system is SLC29A2 (ENT2). Put plainly: gene induction in sandwich-cultured human hepatocytes (qRT-PCR). It counts as cell-based. Conditions: SCHH, 72 h; TCDD 50 nM, OP 50 µM, CITCO 5 µM, PB 1,000 µM (highest conc.); mean ± SD, three donors. On the technique in general: In qPCR the cycle at which signal appears reflects the starting amount.
The subject of the next data set is SLC15A1 (PEPT1). Described as above. The class given is cell-based. Conditions: SCHH, 72 h; TCDD 50 nM, OP 50 µM, CITCO 5 µM, PB 1,000 µM (highest conc.); mean ± SD, three donors.
The next data set has as its system SLC29A1 (ENT1). The description is as above. The class given is cell-based. The settings on record: SCHH, 72 h; TCDD 50 nM, OP 50 µM, CITCO 5 µM, PB 1,000 µM (highest conc.); mean ± SD, three donors.
The subject of another data set is SLC22A9 (OAT7). The description is as above. It counts as cell-based. The settings on record: SCHH, 72 h; TCDD 50 nM, OP 50 µM, CITCO 5 µM, PB 1,000 µM (highest conc.); mean ± SD, three donors.
The next data set deals with SLC51A (OSTα). Described as above. Conditions: SCHH, 72 h; TCDD 50 nM, OP 50 µM, CITCO 5 µM, PB 1,000 µM (highest conc.); mean ± SD, three donors. The class given is cell-based.
A further data set concerns SLC16A1 (MCT1). The description is as above. The class given is cell-based. The settings on record: SCHH, 72 h; TCDD 50 nM, OP 50 µM, CITCO 5 µM, PB 1,000 µM (highest conc.); mean ± SD, three donors.
Another data set concerns CYP1A2. Conditions: SCHH, 72 h; TCDD 50 nM, OP 50 µM, CITCO 5 µM, PB 1,000 µM (highest conc.); mean ± SD, three donors. How it is done: (§1) Cryopreserved human hepatocytes were quickly thawed at 37°C and then transferred into hepatocyte thawing medium. Cells were pelleted at 100 × g for 10 min and then resuspended in hepatocyte complete plating medium (CP medium). The cells were then seeded at 65,000 cells per well in 96-well collagen I coated plates. After cell attachment (4–6 h post-seeding), CP medium was exchanged for ice-cold complete incubation medium (HI medium) containing BD Matrigel™ at the concentration of 0.25 mg/ml. The cells were then incubated overnight at 37°C in a humidified 5% CO2 incubator. […] Cell death or loss of adhesion of hepatocytes during or after treatment were examined by microscopy.
A RNeasy 96 Kit (Qiagen) was used to extract the total cellular RNA from sandwich cultured hepatocytes in 96-well plates following the manufacturer's instructions. A total volume of 200 μL RNA was obtained via the column elution provided in the RNeasy kit. […] Gene expression for each condition is expressed as a fold-change of mean ± standard deviation (SD) from three independent donors (each performed in triplicate). […]

For the next data set, the system named is SLC22A7 (OAT2). The data set can be described thus: gene induction in sandwich-cultured human hepatocytes (qRT-PCR). It counts as cell-based. The settings on record: SCHH, 72 h; TCDD 50 nM, OP 50 µM, CITCO 5 µM, PB 1,000 µM (highest conc.); mean ± SD, three donors.
The next data set has as its system SLC10A1 (NTCP). The description is as above. Conditions: SCHH, 72 h; TCDD 50 nM, OP 50 µM, CITCO 5 µM, PB 1,000 µM (highest conc.); mean ± SD, three donors. It counts as cell-based.
For the next data set, the system named is UGT1A1. Described as above. How it is done: as §1
(§2) A RNeasy 96 Kit (Qiagen) was used to extract the total cellular RNA from sandwich cultured hepatocytes in 96-well plates following the manufacturer's instructions. A total volume of 200 μL RNA was obtained via the column elution provided in the RNeasy kit. Five μL RNA extraction was mixed with TaqMan® Fast Virus 1-Step Master Mix (Life Technologies) in a final reaction volume of 20 μL and qRT-PCR was achieved using a QuantStudio 6 Flex Real-Time PCR System (Life Technologies), following the manufacturer's instructions. β-actin mRNA expression in the SCHH was used as a house-keeping gene for the normalization of target gene expressions. The mRNA levels in SCHH treated with AhR or CAR activators were expressed by a fold change, compared to the gene expressions without the treatment. The 2^−ΔΔCt method ([Livak and Schmittgen, 2001]) was used to analyze the relative changes in gene expression, where the Ct is the cycle number at which the fluorescence in the reaction crosses the preset arbitrary threshold; the ΔCt represents the difference between the Ct target and reference and the ΔΔCt is the difference between the ΔCt of the test and the ΔCt of the preassigned control. Gene expression for each condition is expressed as a fold-change of mean ± standard deviation (SD) from three independent donors (each performed in triplicate). All primer and probe sets were purchased from Life Technologies (Table 2). When concentration-dependent induction observed, the in vitro induction mRNA data were fitted using the sigmoid 3-parameter equation in GraphPad Prism (La Jolla, CA) to estimate the in vitro concentration of inducer that produced half the maximum induction values (EC50).

A further data set has as its system ABCC5 (MRP5). The description is as above. It counts as cell-based. How it is done: as §1, §2
In the next data set the test system is ABCC4 (MRP4). The data set is described as above. It counts as cell-based. As to the method:
as §1, §2

In the next data set the test system is SLCO2B1 (OATP2B1). Described as above. The class given is cell-based. As to the method: as §1, §2
For the next data set, the system named is ABCC3 (MRP3). Described as above. It counts as cell-based. How it is done:
as §1, §2

A further data set has as its system ABCB1 (MDR1). Described as above. It counts as cell-based. How it is done:
as §1, §2

Another data set has as its system ABCC2 (MRP2). Described as above. The class given is cell-based. How it is done:
as §1, §2

The test system of a further data set is SLC22A1 (OCT1). Described as above. It counts as cell-based. As to the method: as §1, §2
The next data set concerns SLCO1B3 (OATP1B3). Described as above. The class given is cell-based. How it is done: as §1, §2
For the next data set, the system named is ABCB11 (BSEP). The description is as above. It counts as cell-based. How it is done: as §1, §2
Another data set concerns ABCG2 (BCRP). Described as above. It counts as cell-based. How it is done:
as §1, §2

Another data set has as its system ABCC6 (MRP6). The data set is described as above. The class given is cell-based. How it is done:
as §1, §2

For a further data set, the system named is SLCO1B1 (OATP1B1). The description is as above. It counts as cell-based. How it is done:
as §1, §2

The test system of another data set is SLC22A5 (OCTN2). The description is as above. The class given is cell-based. Conditions: SCHH, 72 h; TCDD 50 nM, OP 50 µM, CITCO 5 µM, PB 1,000 µM (highest conc.); mean ± SD, three donors.
For the next data set, the system named is CYP3A4. Put plainly: in vitro. The settings on record: human. As to the method: as §1
as §2, with “The 2^−ΔΔCt method ([Livak and Schmittgen, 2001]) was used to analyze the relative changes in gene expression, where the Ct is the cycle number at which the fluorescence in the reaction crosses the preset arbitrary threshold; the ΔCt represents the difference between the Ct target and reference and the ΔΔCt is the difference between the ΔCt of the test and the ΔCt of the preassigned control.” left out

The test system of the next data set is CYP2B6. The data set can be described thus: in vitro. The settings on record: human. How it is done: as §1
as §2, with “The 2^−ΔΔCt method ([Livak and Schmittgen, 2001]) was used to analyze the relative changes in gene expression, where the Ct is the cycle number at which the fluorescence in the reaction crosses the preset arbitrary threshold; the ΔCt represents the difference between the Ct target and reference and the ΔΔCt is the difference between the ΔCt of the test and the ΔCt of the preassigned control.” left out

Another data set concerns SLC51B. Also on record: method as in Niu et al., 2019. Conditions: rifampin (PXR ligand), human and monkey hepatocytes; ref Niu et al., 2019; cited from earlier work.

Where “and” joins values, the source holds several entries; their conditions need not be identical. Identical values can stand only once.

Experimental for SLC10A1 (NTCP): A RNeasy 96 Kit (Qiagen) was used to extract the total cellular RNA from sandwich cultured hepatocytes in 96-well plates following the manufacturer's instructions. A total volume of 200 μL RNA was obtained via the column elution provided in the RNeasy kit. Five μL RNA extraction was mixed with TaqMan® Fast Virus 1-Step Master Mix (Life Technologies) in a final reaction volume of 20 μL and qRT-PCR was achieved using a QuantStudio 6 Flex Real-Time PCR System (Life Technologies), following the manufacturer's instructions. β-actin mRNA expression in the SCHH was used as a house-keeping gene for the normalization of target gene expressions. The mRNA levels in SCHH treated with AhR or CAR activators were expressed by a fold change, compared to the gene expressions without the treatment. The 2^−ΔΔCt method ([Livak and Schmittgen, 2001]) was used to analyze the relative changes in gene expression, where the Ct is the cycle number at which the fluorescence in the reaction crosses the preset arbitrary threshold; the ΔCt represents the difference between the Ct target and reference and the ΔΔCt is the difference between the ΔCt of the test and the ΔCt of the preassigned control. Gene expression for each condition is expressed as a fold-change of mean ± standard deviation (SD) from three independent donors (each performed in triplicate). […] When concentration-dependent induction observed, the in vitro induction mRNA data were fitted using the sigmoid 3-parameter equation in GraphPad Prism (La Jolla, CA) to estimate the in vitro concentration of inducer that produced half the maximum induction values (EC50).
Text for SLC15A1 (PEPT1): (§3) A RNeasy 96 Kit (Qiagen) was used to extract the total cellular RNA from sandwich cultured hepatocytes in 96-well plates following the manufacturer's instructions. […] The 2^−ΔΔCt method ([Livak and Schmittgen, 2001]) was used to analyze the relative changes in gene expression, where the Ct is the cycle number at which the fluorescence in the reaction crosses the preset arbitrary threshold; the ΔCt represents the difference between the Ct target and reference and the ΔΔCt is the difference between the ΔCt of the test and the ΔCt of the preassigned control. Gene expression for each condition is expressed as a fold-change of mean ± standard deviation (SD) from three independent donors (each performed in triplicate). […]
Text for SLC16A1 (MCT1): as §3
Text for SLC22A5 (OCTN2): as §3
Text for SLC22A7 (OAT2): as §3
Text for SLC22A9 (OAT7): as §3
Text for SLC29A1 (ENT1): as §3
Text for SLC29A2 (ENT2): as §3
Text for SLC51A (OSTα): as §3

For the compound `CCC1(c2ccccc2)C(=O)NC(=O)NC1=O` [PB, phenobarbital], the “SLC29A2 (ENT2) mRNA fold change” value in the data set with SLC29A2 (ENT2) amounted to 0.9 ± 0.3 fold. Moreover, the “SLC15A1 (PEPT1) mRNA fold change” value with SLC15A1 (PEPT1) amounted to 1.1 ± 0.5 fold. The “SLC29A1 (ENT1) mRNA fold change” value in the data set on SLC29A1 (ENT1) worked out at 0.9 ± 0.2 fold. The “SLC22A9 (OAT7) mRNA fold change” value in the data set with SLC22A9 (OAT7) worked out at 0.6 ± 0.2 fold. Moreover, the “SLC51A (OSTα) mRNA fold change” value with SLC51A (OSTα) is 0.9 ± 0.2 fold. Moreover, in the data set with SLC16A1 (MCT1), the “SLC16A1 (MCT1) mRNA fold change” value came out at 1.1 ± 0.2 fold. In addition, in the data set with CYP1A2, the “CYP1A2 mRNA fold change” value is 1.3 ± 0.4 fold. In addition, the “SLC22A7 (OAT2) mRNA fold change” value in the data set with SLC22A7 (OAT2) came out at 0.5 ± 0.2 fold. The “SLC10A1 (NTCP) mRNA fold change” value in the data set on SLC10A1 (NTCP) turned out to be 1.4 ± 0.7 fold. The “UGT1A1 mRNA fold change” value in the data set on UGT1A1 was 4.2 fold and 4.2 ± 1.9 fold. The EC50 in the data set on UGT1A1 (human) was 639 ± 444 µM; in the data set with CYP3A4, 343 µM. For the same compound, in the data set on ABCC5 (MRP5), the “ABCC5 (MRP5) mRNA fold change” value was 1.2 ± 0.4 fold. For the same compound, in the data set with ABCC4 (MRP4), the “ABCC4 (MRP4) mRNA fold change” value stood at 1.8 ± 0.4 fold. Moreover, in the data set on SLCO2B1 (OATP2B1), the “SLCO2B1 (OATP2B1) mRNA fold change” value came to 1.8 ± 0.9 fold. Moreover, the “ABCC3 (MRP3) mRNA fold change” value with ABCC3 (MRP3) turned out to be 1.0 ± 0.4 fold. In the data set with ABCB1 (MDR1), the “ABCB1 (MDR1) mRNA fold change” value is given as 1.3 ± 0.6 fold. In the data set on ABCC2 (MRP2), the “ABCC2 (MRP2) mRNA fold change” value amounted to 1.5 ± 0.3 fold. Also, the “SLC22A1 (OCT1) mRNA fold change” value in the data set with SLC22A1 (OCT1) stood at 1.5 ± 0.6 fold. Also, in the data set on SLCO1B3 (OATP1B3), the “SLCO1B3 (OATP1B3) mRNA fold change” value came out at 0.9 ± 0.2 fold. Further, the “ABCB11 (BSEP) mRNA fold change” value in the data set on ABCB11 (BSEP) was 1.1 ± 0.3 fold. Besides, the “ABCG2 (BCRP) mRNA fold change” value in the data set on ABCG2 (BCRP) is listed as 1.6 ± 0.3 fold. Also, in the data set on ABCC6 (MRP6), the “ABCC6 (MRP6) mRNA fold change” value turned out to be 1.3 ± 0.3 fold. In addition, the “SLCO1B1 (OATP1B1) mRNA fold change” value with SLCO1B1 (OATP1B1) was determined as 1.5 ± 0.8 fold. The “SLC22A5 (OCTN2) mRNA fold change” value in the data set on SLC22A5 (OCTN2) is given as 0.8 ± 0.3 fold. The EC50 at 72 h with CYP2B6 was 726 ± 655 µM.
Regarding `CO[C@H]1/C=C/O[C@@]2(C)Oc3c(C)c(O)c4c(O)c(c(/C=N/N5CCN(C)CC5)c(O)c4c3C2=O)NC(=O)/C(C)=C\C=C\[C@H](C)[C@H](O)[C@@H](C)[C@@H](O)[C@@H](C)[C@H](OC(C)=O)[C@@H]1C` [rifampin], the SLC51B induction entry with SLC51B is on record as “greater than 10 fold”.

Broadly, the EC50 is the midpoint of the concentration-response curve.

These data come from publication PMC7859440, “Transporter Gene Regulation in Sandwich Cultured Human Hepatocytes Through the Activation of Constitutive Androstane Receptor (CAR) or Aryl Hydrocarbon Receptor (AhR)” (Frontiers in Pharmacology, 2021).
